What was measured:
Assay type in all cases: cell-based
IGFBP3 = assay: Relative gene expression in reconstructed dermal papillae: IGFBP3; settings: 24 hours, untreated medium = 1.00
Experimental: (§1) Reconstructed dermal papillae as described in European patent 1 455 854 were systemically treated for 24 hours with each of the test substances listed in Table 7 in the cited concentrations. The relative gene expression profile was determined for the markers HGF and KGF (important markers of the anagen phase of the hair cycle) and TGF-beta 1, TGF-beta 2 and IGFBP3 (important markers of the catagen phase of the hair cycle). Expression for incubation with the untreated medium served as the reference; values presented in the Table illustrate the differential gene expression. A differential gene expression that is 1.66 times or greater than the absolute numerical value of the control gene expression is regarded as significant.

HGF = assay: Relative gene expression in reconstructed dermal papillae: HGF; settings: 24 hours, untreated medium = 1.00, 1.66 times or greater significant
Experimental: as §1

KGF = assay: Relative gene expression in reconstructed dermal papillae: KGF; settings: 24 hours, untreated medium = 1.00
Experimental: as §1

TGF-beta 1 = assay: Relative gene expression in reconstructed dermal papillae: TGF-beta 1; settings: 24 hours, untreated medium = 1.00
Experimental: as §1

TGF-beta 2 = assay: Relative gene expression in reconstructed dermal papillae: TGF-beta 2; settings: 24 hours, untreated medium = 1.00
Experimental: as §1

[1] = system: markers of anagen and catagen phase of the hair cycle; assay: Relative gene expression profile of the markers of the hair cycle (statements in words); settings: 0.1 wt. %
Experimental: as §1

[2] = system: organo-typical cell cultures (reconstructed dermal papillae); assay: ATP production, ATPLite-M luciferase assay; settings: dermal papillae cells
Experimental: ATP determinations were made using the ATPLite™-M Assays (from Packard). The test principle of this assay is based on the fact that the lucerifase from Photinus pyralis catalyzes a reaction in which, in the presence of ATP, D-luciferin is converted to oxyluciferin. Green light is emitted in this reaction and can be measured with an illuminometer. The emitted bioluminescence light is proportional to the amount of ATP present. Determination of ATP activity is carried out in organo-typical cell cultures (reconstructed dermal papillae according to EP 1 455 854). Treatment with the substance mixture is carried out for 24 hours against an untreated control. The cells were then lysed with 100 μl/cavity of a lyse buffer contained in a test kit for 5 minutes on a shaker. The cells were then incubated an additional 5 minutes with 100 μl/cavity of the supplied substrate solution on the shaker, and the reaction mixture was subsequently transferred into a black microtitre plate. Luminescence was measured after an incubation time of 10 minutes in the dark.

IL-8 = assay: Basal release of IL-8 from HaCaT keratinocytes, ELISA; settings: 0.5%
Experimental: Measurement of the basal release of IL-8 provides information on the effects of substances on inflammation reactions. IL-8 is a pro-inflammatory cytokine, which plays a central role in the inflammation cascade of the skin. A reduction of the basal release of IL-8 points to potential inflammation inhibiting effects of the studied substances. In order to determine the release of the IL-8, HaCaT keratinocytes were incubated in Hanks medium with glutamax, 5% FCS and antibiotics in 24 well culture vessels. On day 2 after seeding, cells were incubated with the test substances in a concentration of 0.5%. After treatment for 15-20 h the cell culture supernatant was removed and the amount of released IL-8 was quantified by ELISA. The Quantikine IL-8 from RnD-Systems (Wiesbaden, Germany) was used for these analyses. Values illustrated in Table 5 are relative values with respect to the untreated controls from 4 independent experiments.

fibroblasts [3] = assay: Relative vitality (cell activity) of cultivated fibroblasts, redox dye WST-1; settings: untreated control = 100%
Experimental: Vitality of the cultivated cells was determined by means of redox dyes. These dyes penetrate into the cells and are reduced by electron capture at the external mitochondrial membrane. This reduction requires a color change that is subsequently photometrically analyzed. Vitality was quantified by setting the untreated control to 100% and the measured values of the samples treated with the substances were in reference to that figure. Cell damaging means a relative vitality of less than 80%, and cell activating means greater than or equal to 120%. Cell Proliferation Reagent Wst-1 (Roche Applied Science, Mannheim, Germany) was used for this test.

fibroblasts [4] = assay: Proliferation of fibroblasts by CyQuant; settings: for Proliferation MW: untreated control = 100%
Excerpt: Determination of the proliferation of the cultivated cells provides information on the status of the cell division of the treated cells. Both cell division stimulating and cell division inhibiting substances can be defined with this analysis. An outstanding feature during the cell division is the duplication of the DNA. During the new synthesis, nucleotides are built into the newly formed DNA strand. The proliferation can be measured by offering a non-natural nucleotide derivative (bromo deoxy uridine, BrdU) to the cells for the new synthesis; the BrdU can be subsequently detected with specific antibodies. The amount of newly synthesized DNA can be quantified fluorimetrically and provides proportional information on the degree of the cell division process. Proliferation was determined by setting the untreated control to 100% and the measured values of the samples treated with the substances were in reference to that figure. For a relative proliferation of less than 80% the substance effect is said to be inhibitive, for greater than or equal to 120% the substance effect is considered to be stimulative. The CyQuant Assay Cell Proliferation Assay from Molecular Probes was used for this test according to manufacturer's directions.

[5] = system: Hepatocyte Growth Factor (HGF); assay: HGF release from reconstructed hair follicle models, ELISA
Excerpt: (§2) Both the Hepatocyte Growth Factor (HGF) and Keratinocyte Growth Factor (KGF) are important regulators of the hair cycle. A change in the availability for the substances that regulate the hair cycle in comparison with the untreated controls should be assumed. The release of HGF and KGF can be quantified with the help of commercially available ELISA kits (Quantikine, RnD-Systems, Wiesbaden, Germany). For this, reconstructed hair follicle models, which are described in the European patent 1 455 854, were incubated with the test substances for 72 hours and the concentration of the growth factors in the medium was determined in the described manner. In order to be able to rule out that the described effects could have been caused by unreacted sugar (glucose or lactose), the respective individual components were tested at the highest possible concentration. The quantities of the untreated controls were set to 100% and the quantities of the treated samples were relative to these. The standard deviations were calculated from the three biological approaches.

[6] = system: Keratinocyte Growth Factor (KGF); assay: KGF release from reconstructed hair follicle models, ELISA
Excerpt: as §2

[7] = 0.40% w/v, 72 hours, untreated = 100%
[8] = reconstructed hair follicle model

| SMILES | Differential gene expression IGFBP3 (Catagen) (IGFBP3; 0.01% (wt. %)) | Differential gene expression HGF (Anagen) (HGF; 0.01% (wt. %)) | Differential gene expression KGF (Anagen) (KGF; 0.01% (wt. %)) | Differential gene expression TGFβ1 (Catagen) (TGF-beta 1; 0.01% (wt. %)) | Differential gene expression TGFβ2 (Catagen) (TGF-beta 2; 0.01% (wt. %)) | Differential gene expression IGFBP3 (Catagen) (IGFBP3; 0.1% (wt. %)) | Differential gene expression HGF (Anagen) (HGF; 0.1% (wt. %)) | Differential gene expression KGF (Anagen) (KGF; 0.1% (wt. %)) | Differential gene expression TGFβ1 (Catagen) (TGF-beta 1; 0.1% (wt. %)) | Differential gene expression TGFβ2 (Catagen) (TGF-beta 2; 0.1% (wt. %)) | other results |
| --- | --- | --- | --- | --- | --- | --- | --- | --- | --- | --- | --- |
| Cc1occc(=O)c1O [Maltol, 3-hydroxy-2-methyl-4H-pyran-4-one] | −1.69 | −1.23 | −1.87 | −1.28 | −1.86 | – | – | – | – | – | Differential gene expression IGFBP3 (Catagen) (IGFBP3; 0.025% (wt. %)): −3.63; Differential gene expression HGF (Anagen) (HGF; 0.025% (wt. %)): 1.07; Differential gene expression KGF (Anagen) (KGF; 0.025% (wt. %)): −3.02; Differential gene expression TGFβ1 (Catagen) (TGF-beta 1; 0.025% (wt. %)): −1.20; Differential gene expression TGFβ2 (Catagen) (TGF-beta 2; 0.025% (wt. %)): −3.21 |
| N[C@@H](CCCCNCC(=O)[C@@H](O)[C@H](O)[C@H](O)CO)C(=O)O [Fructoselysine (12), N-ε-fructosyllysine] | −1.44 | −1.92 | −1.96 | 1.04 | −2.40 | −1.83 | −1.69 | −2.49 | −1.10 | −2.40 | – |
| O=CC(=O)C[C@H](O)[C@H](O)CO [3-Desoxyglucosulose (18), 3-desoxyglucosulose] | −1.20 | −2.09 | −1.33 | 1.02 | −1.67 | −2.12 | −1.78 | −1.93 | −1.27 | −1.54 | – |
| N[C@@H](CCCCNCC(=O)O)C(=O)O [Carboxymethyllysine (13), N-ε-carboxymethyllysine] | – | – | – | – | – | 1.98 | −1.77 | 1.24 | 1.35 | −1.07 | – |
| Cc1c(O)c(=O)ccn1CCCC[C@H](N)C(=O)O [Maltosine (15), maltosine] | – | – | – | – | – | 7.55 | −2.09 | −1.45 | 3.39 | −2.24 | Gene expression of markers of catagen (in words) [1]: simultaneously increased gene expression of markers of catagen |
| CC1NC(NCCC[C@H](N)C(=O)O)=NC1=O (stereo partly drawn) [Ornithinoimidazolinone (16), ornithinoimidazolinone] | – | – | – | – | – | −1.60 | −3.30 | −1.25 | 1.08 | −1.66 | – |
| OC[C@H]1O[C@@H](O[C@H]2[C@H](O)[C@@H](O)C(O)O[C@@H]2CO)[C@H](O)[C@@H](O)[C@H]1O (stereo partly drawn) [Lactose, D-(+)-lactose] | – | – | – | – | – | – | – | – | – | – | Effect on synthesis rate of ATP (in words) [2]: did not lead at any time and at any concentration to a change; Effect on basal release of IL-8 (in words) (IL-8): did not lead to a significant change; Vitality MW (fibroblasts [3]; 250 μg/ml): 97.5%; Vitality MW (fibroblasts [3]; 500 μg/ml): 98.6%; Vitality MW (fibroblasts [3]; 1000 μg/ml): 102.0%; Vitality MW (fibroblasts [3]; 2000 μg/ml): 116.4%; Vitality MW (fibroblasts [3]; 4000 μg/ml): 119.8%; Effect on cell division activity of fibroblasts (in words) (fibroblasts [4]): No effect could be detected; Proliferation MW (fibroblasts [4]; 250 μg/ml): 107.2%; Proliferation MW (fibroblasts [4]; 500 μg/ml): 90.4%; Proliferation MW (fibroblasts [4]; 1000 μg/ml): 111.7%; Proliferation MW (fibroblasts [4]; 2000 μg/ml): 107.6%; Proliferation MW (fibroblasts [4]; 4000 μg/ml): 77.5%; HGF release MW % [5, 7]: 65.3%; Effect on release of HGF (in words) [5, 8]: reduced release of HGF; KGF release MW % [6, 7]: 101.2%; Effect on KGF release (in words) [6, 8]: distinct effect due to treatment with sugars (lactose and glucose) could not be established |

Source: US8202892B2, “Advanced glycation end products as active ingredients” (Henkel AG & Co. KGaA, priority 2007, dated 2012)
